{"source": "patent US20040110247A1", "about": "“New molecular tools for the rapid assessment of the presence and viability of microorganisms and methods of use” (priority 2002, published 2004)", "assay_type_in_all_cases": "cell-based", "key": {"[1]": {"test_system": "Wild-type (wt) Streptococcus gordonii", "test": "Quantitative culture (colony counts) of drug-exposed S. gordonii cultures", "method": "(§1) 1) Strains and growth conditions: Wild-type (wt) and penicillin tolerant (Tol) Streptococcus gordonii (I. Caldelari et al., Antimicrobial Agents and Chemotherapy, 2000, 44(10):2802-2810) were grown at 37 degrees Celsius, either in brain heart infusion broth (BHI) without aeration, or on Columbia agar supplemented with 3% blood. Quantitative culture was performed by plating serial dilutions of bacterial cultures taken at various time points on penicillinase-containing blood-agar plates. Colonies counts were determined after incubation for […] at 37° C."}, "[2]": {"test_system": "Wild-type (wt) Streptococcus gordonii", "test": "RT-qPCR of 16S rRNA after drug exposure", "conditions": "reverse transcription of 16S rRNA from total RNA, then qPCR", "method": "as §1\n(§2) 3) Extraction and purification of bacterial DNA and RNA: (i) Total DNA from 3 ml of culture samples was extracted and purified using the DNeasy Tissue Kit according to the instructions of the manufacturer (Qiagen). […] Total RNA concentrations were determined by spectrophotometry and quality checked on 1% MOPS-agarose gels. […]\n(§3) 4) Quantitative Real-Time PCR was performed using the following probe FAM-5′-TTGCACCACTACCAGATGGAC CTGC-3′-TAMRA (SEQ ID NO:3) according to the instruction of the manufacturer (Perkin-Elmer) on Sequence Detection System 5700 (Perkin-Elmer) in a total volume of 50 μl 1×PCR buffer (Gibco) containing 25 pmoles of each primer, […] of fluorescent probe, […] each dNTP and 1.5 UI of Taq DNA polymerase (Gibco). […]"}, "[3]": {"test_system": "penicillin tolerant (Tol) Streptococcus gordonii", "test": "RT-qPCR of 16S rRNA after drug exposure, tolerant mutant control", "conditions": "same system, Tol as control", "method": "as §1, §2, §3"}}}
{"substance": "penicillin", "values": [{"measurement": "loss of viability", "setting": "[1]; after addition of penicillin, up to 50 hours", "result": 5, "unit": "log CFU/ml"}, {"measurement": "loss of viability", "setting": "[1]; cultures dramatically killed with penicillin (qualitative PCR experiment)", "result": "> 3", "unit": "log CFU/ml"}, {"measurement": "16S rRNA amplicons (viability marker) during drug-induced killing", "setting": "[2]", "result": "decreased proportionally to cell death"}, {"measurement": "ribosomal RNA amplicons in penicillin-tolerant mutant Tol", "setting": "[3]", "result": "remained stable and proportional to viable bacteria"}]}
